Data reported in patent US9067949B2, “Benzofuro[3,2-c] pyridines and related analogs as serotonin sub-type 6 (5-HT6) modulators for the treatment of obesity, metabolic syndrome, cognition and schizophrenia” (Albany Molecular Research, Inc., priority 2011, dated 2015).
pKi: −log10 of the molar value. Blank lines part the entries; values can stand above or below the molecule they belong to.

Key:
human 5-HT6 receptor = human 5-HT6 receptor (Homo sapiens (Human), UniProt P50406); assay: 5-HT6 radioligand binding assay (SPA format, [N-methyl-3H]-LSD); conditions: human 5-HT6 receptor membranes, 10 nM [N-methyl-3H]-LSD; Ki by Cheng-Prusoff; read-out: human 5HT6 Ki
Summary of the method: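 Human 5-HT6 receptor membranes were incubated overnight at room temperature with 10 nM [N-methyl-3H]-LSD and competitor in 50 mM Tris-HCl pH 7.5, 5 mM MgCl2, 1 mM EDTA, 4% DMSO, read by SPA. Nonspecific binding was defined with 100 μM 5-HT. IC50 came from ten-point duplicate curves; Ki via Cheng-Prusoff.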

human 5-HT6 receptor, sequence (P50406 whole entry): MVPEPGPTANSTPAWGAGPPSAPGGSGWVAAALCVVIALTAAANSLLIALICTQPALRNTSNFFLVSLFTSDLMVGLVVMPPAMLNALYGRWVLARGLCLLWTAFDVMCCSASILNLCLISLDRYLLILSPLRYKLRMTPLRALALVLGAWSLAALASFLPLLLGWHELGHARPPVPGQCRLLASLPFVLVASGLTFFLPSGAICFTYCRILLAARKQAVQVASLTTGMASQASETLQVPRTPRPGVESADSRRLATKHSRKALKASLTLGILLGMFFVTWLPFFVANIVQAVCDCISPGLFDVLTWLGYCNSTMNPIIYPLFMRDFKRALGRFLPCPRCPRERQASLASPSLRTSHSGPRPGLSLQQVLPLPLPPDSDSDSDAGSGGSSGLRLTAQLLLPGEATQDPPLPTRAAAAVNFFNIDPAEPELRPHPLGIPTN

Structure (SMILES): Cl.O=S(=O)(c1cc(F)cc(F)c1)c1ccc2oc3c(c2c1)CNCC3 [Example 37, 8-(3,5-Difluorophenylsulfonyl)-1,2,3,4-tetrahydrobenzofuro[3,2-c]pyridine hydrochloride]
melting point: 275 to 281 °C (dec.) | pKi (human 5-HT6 receptor): 6.47

Structure (SMILES): Cl.O=S(=O)(c1cc(Cl)cc(Cl)c1)c1ccc2oc3c(c2c1)CNCC3 [Example 38, 8-(3,5-Dichlorophenylsulfonyl)-1,2,3,4-tetrahydrobenzofuro[3,2-c]pyridine hydrochloride]
melting point: 312 to 315 °C | pKi (human 5-HT6 receptor): 7.77

Structure (SMILES): Cl.O=S(=O)(c1ccc2oc3c(c2c1)CNCC3)c1cccc2ccccc12 [Example 39, 8-(1-Naphthylsulfonyl)-1,2,3,4-tetrahydrobenzofuro[3,2-c]pyridine hydrochloride]
melting point: 200 to 202 °C | pKi (human 5-HT6 receptor): 8.30

Structure (SMILES): Cl.O=S(=O)(c1ccc2ccccc2c1)c1ccc2oc3c(c2c1)CNCC3 [Example 40, 8-(2-Naphthylsulfonyl)-1,2,3,4-tetrahydrobenzofuro[3,2-c]pyridine hydrochloride]
melting point: 267 to 270 °C | pKi (human 5-HT6 receptor): 7.68

Structure (SMILES): Cl.O=S(=O)(c1ccc2oc3c(c2c1)CNCC3)n1ccc2ccccc21 [Example 41, 8-(1H-Indol-1-ylsulfonyl)-1,2,3,4-tetrahydrobenzofuro[3,2-c]pyridine hydrochloride]
melting point: 283 to 286 °C | pKi (human 5-HT6 receptor): 9.24

Structure (SMILES): Cl.O=S(=O)(c1ccc2oc3c(c2c1)CNCC3)n1ccc2ccc(F)cc21 [Example 42, 8-(6-fluoro-1H-indol-1-ylsulfonyl)-1,2,3,4-tetrahydrobenzofuro[3,2-c]pyridine hydrochloride]
melting point: 199 to 203 °C | pKi (human 5-HT6 receptor): 8.82

Structure (SMILES): Cc1cn(S(=O)(=O)c2ccc3oc4c(c3c2)CNCC4)c2ccccc12.Cl [Example 43, 8-(3-Methyl-1H-indol-1-ylsulfonyl)-1,2,3,4-tetrahydrobenzofuro[3,2-c]pyridine hydrochloride]
melting point: 293 to 296 °C | pKi (human 5-HT6 receptor): 9.38

Structure (SMILES): Cl.O=S(=O)(c1ccccc1)c1cc(Cl)c2oc3c(c2c1)CNCC3 [Example 44, 6-Chloro-8-(phenylsulfonyl)-1,2,3,4-tetrahydrobenzofuro[3,2-c]pyridine hydrochloride]
melting point: 290 to 294 °C | pKi (human 5-HT6 receptor): 9.26

Structure (SMILES): Cl.O=S(=O)(c1cccc(F)c1)c1cc(Cl)c2oc3c(c2c1)CNCC3 [Example 47, 6-Chloro-8-(3-fluorophenylsulfonyl)-1,2,3,4-tetrahydrobenzofuro[3,2-c]pyridine hydrochloride]
melting point: 276 to 278 °C | pKi (human 5-HT6 receptor): 9.41

melting point: 272 to 274 °C | pKi (human 5-HT6 receptor): 7.92
Structure (SMILES): Cl.N#Cc1cccc(S(=O)(=O)c2cc(Cl)c3oc4c(c3c2)CNCC4)c1 [Example 48, 6-Chloro-8-(3-cyanophenylsulfonyl)-1,2,3,4-tetrahydrobenzofuro[3,2-c]pyridine hydrochloride]

Structure (SMILES): Cl.O=S(=O)(c1ccc(Cl)cc1)c1cc(Cl)c2oc3c(c2c1)CNCC3 [Example 49, 6-Chloro-8-(4-chlorophenylsulfonyl)-1,2,3,4-tetrahydrobenzofuro[3,2-c]pyridine hydrochloride]
melting point: 282 to 284 °C | pKi (human 5-HT6 receptor): 8.72

Structure (SMILES): Cl.Cn1cc(S(=O)(=O)c2cc(Cl)c3oc4c(c3c2)CNCC4)c2ccccc21 [Example 50, 6-Chloro-8-(1-methyl-1H-indol-3-ylsulfonyl)-1,2,3,4-tetrahydrobenzofuro[3,2-c]pyridine]
melting point: 262 to 264 °C | pKi (human 5-HT6 receptor): 9.77

Structure (SMILES): Cl.O=S(=O)(c1ccccc1)c1cc(F)c2oc3c(c2c1)CNCC3 [Example 52, 6-Fluoro-8-(phenylsulfonyl)-1,2,3,4-tetrahydrobenzofuro[3,2-c]pyridine hydrochloride]
melting point: 232 to 250 °C | pKi (human 5-HT6 receptor): 8.29

Structure (SMILES): COc1cc(S(=O)(=O)c2ccccc2)cc2c3c(oc12)CCNC3.Cl [Example 54, 6-Methoxy-8-(phenylsulfonyl)-1,2,3,4-tetrahydrobenzofuro[3,2-c]pyridine hydrochloride]
melting point: 197 to 202 °C | pKi (human 5-HT6 receptor): 9.92

Structure (SMILES): Cl.O=S(=O)(c1cccc(C(F)(F)F)c1)c1ccc2oc3c(c2c1)C1CCC(C3)N1 (centres unmarked) [Example 55, 2-(3-Trifluoromethylphenyl)sulfonyl-6,7,8,9,10-pentahydro-7,10-epiminocyclohepta[b]benzofuran hydrochloride]
melting point: 296 to 298 °C | pKi (human 5-HT6 receptor): 7.28

Structure (SMILES): Cl.O=S(=O)(c1cccc(Cl)c1)c1ccc2oc3c(c2c1)C1CCC(C3)N1 (centres unmarked) [Example 56, 2-(3-Chlorophenyl)sulfonyl-6,7,8,9,10-pentahydro-7,10-epiminocyclohepta[b]benzofuran hydrochloride]
melting point: 285 to 288 °C | pKi (human 5-HT6 receptor): 7.51

Structure (SMILES): Cl.O=S(=O)(c1cccc(F)c1)c1ccc2oc3c(c2c1)C1CCC(C3)N1 (centres unmarked) [Example 57, 2-(3-Fluorophenyl)sulfonyl-6,7,8,9,10-pentahydro-7,10-epiminocyclohepta[b]benzofuran hydrochloride]
melting point: 200 to 210 °C | pKi (human 5-HT6 receptor): 6.88

Structure (SMILES): Cc1cn(S(=O)(=O)c2ccc3oc4c(c3c2)C2CCC(C4)N2)c2ccccc12.Cl (centres unmarked) [Example 58, 2-(3-Methyl-1H-indol-1-yl)sulfonyl-6,7,8,9,10-pentahydro-7,10-epiminocyclohepta[b]benzofuran hydrochloride]
melting point: 195 to 199 °C | pKi (human 5-HT6 receptor): 7.80

Structure (SMILES): Cl.O=S(=O)(c1ccc2oc3c(c2c1)C1CCC(C3)N1)n1ccc2ccc(F)cc21 (centres unmarked) [Example 59, 2-(6-Fluoro-1H-indol-1-yl)sulfonyl-6,7,8,9,10-pentahydro-7,10-epiminocyclohepta[b]benzofuran hydrochloride]
melting point: 184 to 187 °C | pKi (human 5-HT6 receptor): 7.77

Structure (SMILES): Cl.O=S(=O)(c1ccccc1)c1ccc2c3c(oc2c1)CCNC3 [Example 60, 7-(Phenylsulfonyl)-1,2,3,4-tetrahydrobenzofuro[3,2-c]pyridine hydrochloride]
melting point: 235 to 238 °C | pKi (human 5-HT6 receptor): 8.01

Structure (SMILES): CN1CCc2oc3cc(S(=O)(=O)c4ccccc4)ccc3c2C1.Cl [Example 61, 2-Methyl-7-(phenylsulfonyl)-1,2,3,4-tetrahydrobenzofuro[3,2-c]pyridine hydrochloride]
melting point: 242 to 245 °C | pKi (human 5-HT6 receptor): 7.74

Structure (SMILES): Cl.O=S(=O)(c1cccc(Cl)c1)c1ccc2c3c(oc2c1)CCNC3 [Example 62, 7-(3-Chlorophenylsulfonyl)-1,2,3,4-tetrahydrobenzofuro[3,2-c]pyridine hydrochloride]
melting point: 288 to 292 °C | pKi (human 5-HT6 receptor): 8.77

Structure (SMILES): Cl.O=S(=O)(c1cccc(C(F)(F)F)c1)c1ccc2c3c(oc2c1)CCNC3 [Example 63, 7-(3-Trifluoromethylphenylsulfonyl)-1,2,3,4-tetrahydrobenzofuro[3,2-c]pyridine hydrochloride]
melting point: 290 to 294 °C | pKi (human 5-HT6 receptor): 8.68

Structure (SMILES): Cl.O=S(=O)(c1cccc(C(F)(F)F)c1)c1ccc2c3c(oc2c1)CC1CCC3N1 (centres unmarked) [Example 64, 3-(3-Trifluoromethylphenyl)sulfonyl-6,7,8,9,10-pentahydro-7,10-epiminocyclohepta[b]benzofuran hydrochloride]
melting point: 178 to 183 °C | pKi (human 5-HT6 receptor): 6.94

Structure (SMILES): Cl.O=S(=O)(c1cccc(Cl)c1)c1ccc2c3c(oc2c1)CC1CCC3N1 (centres unmarked) [Example 65, 3-(3-Chlorophenyl)sulfonyl-6,7,8,9,10-pentahydro-7,10-epiminocyclohepta[b]benzofuran hydrochloride]
melting point: 193 to 197 °C | pKi (human 5-HT6 receptor): 6.81
